# From paper PMC9254247, “Dual-sensitive antibacterial peptide nanoparticles prevent dental caries” (Theranostics, 2022)
# No end group written: not given here.
# Tested on: fresh mice erythrocytes
# Type: cell-based, mouse
# Details: PBS pH 7.4; 30 min; 37 °C
# Source text: Peptide and different pH of culture medium prepared. The pH of BHI medium was adjusted by HCl and NaOH. All peptides, including lycosin- I, pHly-1, s-pHly-1 were synthesized on a Rink amide-AM resin using the SPPS
# (9- fluorenyl-methoxycarbonyl solid-phase peptide synthesis) method as reported previously1. Then peptides were cleaved from the resin using TFA/1,2- ethanedithiol/thioanisole/anisole (90/5/3/2 (v/v)), precipitated in cold diethyl ether and the collected precipitate was dried by air -drying . The prepared peptides were purified by reverse phase- HPLC (RP-HPLC) and their molecular weights were determined by MALDI-TOF MS.
# Hemolytic assay. Approximately 4 % (in volume) of the mouse erythrocyte s were prepared by diluting fresh erythrocytes to 25-fold dilution with PBS buffer (pH 7.4).
# The stock peptide solution ([…]) diluted by PBS solution to reach various concentrations (200 μL) was placed in a 1.5 mL sterile microfuge tube, followed by the addition of 200 μ L o f erythrocyte suspension. The mixture was incubated at 37 °C for 30 min. Then, the mixture was centrifuged at 3,500 rpm for 5 min to collect the supernatant. Aliquots (100 μL) of the supernatant were removed to 96-well plates, and the absorbance was detected at 450 nm using a microplate reader (Multiskan Spectrum, BioTek Inc., USA). Untreated erythrocyte suspension in an equal volume of PBS solution and 0.1% Triton X-100 were used as the negative control and positive […]
# Isolation and culture of clinical S.mutans strains. Ethical approval of the study and the written consent/permission forms were obtained from Institutional Review Board (IRB) at Hunan Normal University prior to the study. For each child, written permission form was reviewed and signed by their legal guardians. Plaque -biofilm samples were collected from patients, including 16 Middle-aged and young patients and 4 children (age between 48 and 72 months) diagnosed with severe early childhood caries (S-ECC) in Changsha Stomatological Hospital. […]
substance,measurement,value
LHQHLHQHAIFHAIIHMAHFWIK-NH2 [s-pHly-1 NPs],HC50,423.0 µM
